Experimental data as given in patent publication US20030109418A1, “Methods for identifying compounds for inhibition of neoplastic lesions, and pharmaceutical compositions containing such compounds” (priority 1999, published 2003).
Counter-ions that a name gives are not always drawn.

Columns and labels:
[1] = molecular target: T1, purified cyclooxygenase (Type 1, COX-I) from ram seminal vesicles (Ovis aries, UniProt P05979); assay: COX inhibition assay, purified cyclooxygenase; type: biochemical; conditions: for inhibition at 100 µM: read-out: Cyclooxygenase inhibitory activity, % Inhibition at 100 μM
T1 construct: using purified cyclooxygenase from ram seminal vesicles as described previously; tissue Cayman Chemical, Ann Arbor, Mich; (named in the general protocol only); host or cells: ram seminal vesicles
T1 sequence (P05979 25-600): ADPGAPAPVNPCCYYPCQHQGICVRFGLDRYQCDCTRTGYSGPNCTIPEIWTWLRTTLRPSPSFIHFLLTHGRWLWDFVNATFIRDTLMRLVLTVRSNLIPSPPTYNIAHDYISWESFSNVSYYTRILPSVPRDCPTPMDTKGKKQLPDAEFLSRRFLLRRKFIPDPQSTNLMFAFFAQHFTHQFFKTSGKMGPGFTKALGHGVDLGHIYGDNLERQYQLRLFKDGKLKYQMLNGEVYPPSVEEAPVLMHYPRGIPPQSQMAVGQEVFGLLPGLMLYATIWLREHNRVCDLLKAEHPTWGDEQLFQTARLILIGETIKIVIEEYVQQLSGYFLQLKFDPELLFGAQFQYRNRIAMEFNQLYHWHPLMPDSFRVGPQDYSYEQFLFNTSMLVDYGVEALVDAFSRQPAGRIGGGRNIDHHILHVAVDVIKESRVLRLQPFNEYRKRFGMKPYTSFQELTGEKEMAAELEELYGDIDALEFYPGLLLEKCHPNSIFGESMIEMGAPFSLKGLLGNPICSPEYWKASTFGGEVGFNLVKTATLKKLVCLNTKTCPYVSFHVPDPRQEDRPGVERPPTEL

[2] = test system: cGMP PDE purified from human colon HT-29 cultured tumor cells; assay: cGMP PDE inhibition assay; type: biochemical; conditions: for IC50: read-out: IC50 for inhibition of cGMP PDE, HT-29 cell enzyme
[3] = test system: PrEC primary prostate epithelial cell cultures; assay: Histone-associated DNA fragmentation in normal prostate epithelial cells; type: cell-based; conditions: 50 μM, up to 4 days
Method: The androgen-sensitive prostate tumor cell line, LNCaP (from ATCC (Rockville, Md.)) was propogated under standard conditions using […] medium containing 5% fetal calve serum and 2 mM glutamine. Primary prostate epithelial cell cultures (PrEC) derived from normal prostate (from Clonetics Inc. (San Diego, Calif.)) were grown under the same conditions as the tumor cell line except a serum-free medium optimized for the growth of such cultures was used (Clonetics Inc). For the experiments, LNCaP or PrEC cells were seeded in 96 well plates at a density of 10,000 cells per well. After 24 hours, the cells were treated with either vehicle (0.1% DMSO) or 50 μM Compound I (free base) solubilized in DMSO. After various drug treatment times (4, 24, 48, 72, or 99 hours) the cells were lysed and processed for measurement of histone-associated DNA as an indicator of apoptotic cell death (see, Piazza et al., Cancer Research 57: 2452-2459, 1997).
This is in marked contrast to conventional chemotherapeutics that induce apoptosis or necrosis in rapidly growing normal and neoplastic cells alike.

[4] = test system: SW-480 colon adenocarcinoma cells; assay: Apoptosis fold induction protocol (DNA fragmentation ELISA); conditions: Homo sapiens
HCT116, Colon = assay: Growth inhibition, SRB assay, HCT116; type: cell-based; conditions: Homo sapiens, HCT-116
Source text: A compound's ability to inhibit tumor cell growth can be measured using the HT-29 human colon carcinoma cell line obtained from ATCC. HT-29 cells have previously been characterized as a relevant colon tumor cell culture model (Fogh, J., and Trempe, G. In: Human Tumor Cells in Vitro, J. Fogh (eds.), Plenum Press, New York, pp. 115-159, 1975). HT-29 cells are maintained in RPMI media supplemented with 5% fetal bovine calf serum (Gemini Bioproducts, Inc., Carlsbad, Calif.) and 2 mm glutamine, and 1% antibiotic-antimycotic in a humidified atmosphere of 95% air and 5% CO2 at 37° C. Briefly, HT-29 cells are plated at a density of 500 cells/well in 96 well microtiter plates and incubated for 24 hours at 37° C. prior to the addition of compound. […] After six days in culture, the cells are fixed by the addition of cold trichloroacetic acid to a final concentration of 10% and protein levels are measured using the sulforhodamine B (SRB) colorimetric protein stain assay as previously described by Skehan, P., Storeng, R., Scudiero, D., Monks, A., McMahon, J., Vistica, D., Warren, J. T., Bokesch, H., Kenney, S., and Boyd, M. R., “New Colorimetric Assay For Anticancer-Drug Screening,” J. Natl. Cancer Inst. […]
To show the effectiveness of this screening method on various forms of neoplasia, compounds were tested on numerous cell lines. […] The IC50 values were determined by the SRB assay. […]

[5] = test system: KNRK, Kidney (ras transformed); assay: Growth inhibition, SRB assay, KNRK; type: cell-based
[6] = test system: new polyps in patients with adenomatous polyposis coli; assay: Clinical prevention trial in APC patients; type: in vivo, human
Source text: The first clinical trial involved patients with APC.
using exisulind. In that study, each patient had already had his/her colon removed, except for a small section of colon adjacent the rectum (where the small intestine was attached) to preserve rectal function. However, such a patient commonly forms polyps in the small remaining colonic section, which polyps require periodic removal (e.g., by electrocautery).
That trial where exisulind was selected was a prevention trial designed to evaluate the anti-neoplastic characteristics of the drug by comparing the cumulative number of new polyps formed over twelve months by the drug and placebo groups. Eligible patients were those who form between 9 and 44 polyps per year. Patients were fully ablated (had all polyps removed) at the start of the study, at the end of 6 months and at the end of 12 months. The study enrolled thirty-four eligible patients. […] Based on the median number of polyps produced in the first six months of the study, patients treated with exisulind developed approximately one-third the number of polyps as patients treated with placebo (median values 9 polyps/year and 26 polyps/year, respectively; p=0.013). […]

| Compound | inhibition at 100 µM [1] | IC50 [2] | DNA fragmentation in PrEC (normal prostate) cells [3] | EC50 ([4]; SW480, read-out: DNA fragmentation EC50) | COX Inhibition ([1]; qualitative activity profile) | cGMP PDE inhibitory activity, % Inhibition at 10 μM ([2]; 10 μM) | PDE Inhibition ([2]; qualitative activity profile) | IC50 (HCT116, Colon) | IC50 [5] | median number of polyps produced, entire 12 months ([6]; entire 12 months of the study) | median number of polyps produced, first six months ([6]; first six months of the study) | fold induction at 100 µM ([4]; SW480, read-out: Apoptosis-inducing activity, Fold induction at 100 μM, 100 μM, cell line not given) |
| --- | --- | --- | --- | --- | --- | --- | --- | --- | --- | --- | --- | --- |
| CC1=C(CC(=O)NCc2ccccc2)c2cc(F)ccc2/C1=C\c1ccncc1 [Compound I, (Z)-5-fluoro-2-methyl-(4-pyridylidene)-3-(N-benzyl)indenylacetamide hydrochloride] | < 25% | 0.68 µM | did not affect DNA fragmentation | 15 µM |  |  |  |  |  |  |  |  |
| CC1=C(CC(=O)O)c2cc(F)ccc2/C1=C\c1ccc(S(C)(=O)=O)cc1 [Exisulind, 5-fluoro-2-methyl-1-(p-methylsulfonylbenzylidene)-3-indenylacetic acid] | < 25% | 56 µM |  |  | − | 39% | ++ | 90 µM | 240 µM | 18 polyps/year | 9 polyps/year | < 2 |
